Measured values: patent US10053462B2, “P2X7 modulators” (Jansssen Pharmaceutica NV, priority 2013, dated 2018)
Where two headings read alike, the source gives them in different places.

Biological target: P2X7 (Homo sapiens (Human), UniProt Q99572)
Test: P2X7 antagonism in human peripheral blood mononuclear cells (PBMCs), IL-1β release
Assay type: cell-based
Conditions: LPS 30 ng/ml + Bz-ATP 0.5 mM; for remaining activity at 10 µM: read-out: PBMC 10 μM (% control); for PBMC 10 μM (% control): Table 1, 10 μM compound
Experimental: P2X7 Antagonism in Human Peripheral Blood Mononuclear Cells (PBMCs) and Human Whole Blood.
Human blood was collected using a blood donor program. PBMCs were isolated from blood using a Ficoll density gradient technique. Briefly, blood was laid on Ficoll solution and centrifuged at RT for 20 minutes at 2000 rpm. The buffy layer (between red blood cells and plasma) was carefully collected by aspiration, washed with PBS and centrifuged again at 1500 rpm for 15 minutes. The resulting cell pellet was washed and plated on 96 well-plates for experiments. For the Human Whole Blood experiments, 150 μl of human blood was platted on 96 well-plates. Lipopolysaccharide (LPS) (30 ng/ml) was added to each well and incubated for 1 hour. Test compounds were then added and incubated for 30 minutes. The P2X7 agonist, 2′(3′)-O-(4-benzoylbenzoyl) adenosine 5′-triphosphate (Bz-ATP) was then added at a final concentration of 0.5 mM (PBMC) or 1 mM (blood). Cells were incubated for an additional 1.5 hours. At that point, supernatant was collected and stored for IL-1β assay using manufacturer's protocol for enzyme-linked immunosorbent assay (ELISA). Data was expressed as percent control, where control is defined as the difference in IL-1β release in LPS+Bz-ATP samples and LPS only samples. Data was plotted as response (% control) versus concentration to generate IC50 values. […] Data are analyzed and graphed on Graphpad Prism 5. For analysis, each concentration point is averaged from triplicate values and the averaged values are plotted on Graphpad Prism.

[1] = P2X7, Table 2 (additional runs), 10 μM compound

Chain of P2X7 (Q99572 whole entry): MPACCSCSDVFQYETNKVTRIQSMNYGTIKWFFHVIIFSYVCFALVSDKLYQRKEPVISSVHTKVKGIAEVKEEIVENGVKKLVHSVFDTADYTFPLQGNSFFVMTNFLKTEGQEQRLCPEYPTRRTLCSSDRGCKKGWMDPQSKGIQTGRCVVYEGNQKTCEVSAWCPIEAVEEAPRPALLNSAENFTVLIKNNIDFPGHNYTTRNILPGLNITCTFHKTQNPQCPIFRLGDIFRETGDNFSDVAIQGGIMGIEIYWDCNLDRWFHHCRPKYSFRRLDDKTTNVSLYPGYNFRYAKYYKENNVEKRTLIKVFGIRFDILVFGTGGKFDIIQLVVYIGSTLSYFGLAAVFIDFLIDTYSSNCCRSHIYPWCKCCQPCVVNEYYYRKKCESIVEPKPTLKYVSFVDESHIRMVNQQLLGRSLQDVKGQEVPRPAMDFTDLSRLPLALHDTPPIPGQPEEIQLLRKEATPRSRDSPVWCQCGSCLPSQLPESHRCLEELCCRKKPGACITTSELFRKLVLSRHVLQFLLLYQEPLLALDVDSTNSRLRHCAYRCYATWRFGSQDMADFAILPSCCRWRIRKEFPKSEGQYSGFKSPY

O=C(c1ccc(Cl)cc1Cl)N1[C@@H]2CCC[C@H]1c1nnc(-c3ncc(F)cn3)n1C2 (stereo in doubt) [Example 21, (6R*,10S*)-11-[(2,4-Dichlorophenyl)carbonyl]-3-(5-fluoropyrimidin-2-yl)-5,6,7,8,9,10-hexahydro-6,10-epimino[1,2,4]triazolo[4,3-a]azocine]
remaining activity at 10 µM (P2X7, Table 1, 10 μM compound): -2.1% | remaining activity at 10 µM [1]: -2.1%

Cc1cccc(-c2nnc3n2C[C@@H]2CCC[C@H]3N2C(=O)c2cccc(C(F)(F)F)c2Cl)n1 (stereo in doubt) [Example 23, (6S*,10R*)-11-{[2-Chloro-3-(trifluoromethyl)phenyl]carbonyl}-3-(6-methylpyridin-2-yl)-5,6,7,8,9,10-hexahydro-6,10-epimino[1,2,4]triazolo[4,3-a]azocine]
remaining activity at 10 µM (P2X7, Table 1, 10 μM compound): 8% | remaining activity at 10 µM [1]: 8%

Cc1cccc(-c2nnc3n2C[C@H]2CCC[C@@H]3N2C(=O)c2cccc(C(F)(F)F)c2Cl)n1 (stereo in doubt) [Example 24, (6R*,10S*)-11-{[2-Chloro-3-(trifluoromethyl)phenyl]carbonyl}-3-(6-methylpyridin-2-yl)-5,6,7,8,9,10-hexahydro-6,10-epimino[1,2,4]triazolo[4,3-a]azocine]
remaining activity at 10 µM (P2X7, Table 1, 10 μM compound): 32.7% | remaining activity at 10 µM [1]: 32.7%

COc1ccnc(-c2nnc3n2C[C@@H]2CCC[C@H]3N2C(=O)c2cccc(C(F)(F)F)c2Cl)c1 (stereo in doubt) [Example 26, (6S*,10R*)-11-{[2-Chloro-3-(trifluoromethyl)phenyl]carbonyl}-3-(4-methoxypyridin-2-yl)-5,6,7,8,9,10-hexahydro-6,10-epimino[1,2,4]triazolo[4,3-a]azocine]
remaining activity at 10 µM (P2X7, Table 1, 10 μM compound): 9.2% | remaining activity at 10 µM [1]: 9.2%

COc1ccnc(-c2nnc3n2C[C@H]2CCC[C@@H]3N2C(=O)c2cccc(C(F)(F)F)c2Cl)c1 (stereo in doubt) [Example 27, (6R*,10S*)-11-{[2-Chloro-3-(trifluoromethyl)phenyl]carbonyl}-3-(4-methoxypyridin-2-yl)-5,6,7,8,9,10-hexahydro-6,10-epimino[1,2,4]triazolo[4,3-a]azocine]
remaining activity at 10 µM (P2X7, Table 1, 10 μM compound): 4.8% | remaining activity at 10 µM [1]: 4.8%

O=C(c1ccnc(C(F)(F)F)c1Cl)N1[C@H]2CCC[C@@H]1c1nnc(-c3cccs3)n1C2 (stereo in doubt) [Example 35, (6S*,10R*)-11-{[3-Chloro-2-(trifluoromethyl)pyridin-4-yl]carbonyl}-3-thiophen-2-yl-5,6,7,8,9,10-hexahydro-6,10-epimino[1,2,4]triazolo[4,3-a]azocine]
remaining activity at 10 µM [1]: 82.2% | PBMC 10 μM (% control): 82.2 % control

O=C(c1ccnc(C(F)(F)F)c1Cl)N1[C@@H]2CCC[C@H]1c1nnc(-c3cccs3)n1C2 (stereo in doubt) [Example 36, (6R*,10S*)-11-{[3-Chloro-2-(trifluoromethyl)pyridin-4-yl]carbonyl}-3-thiophen-2-yl-5,6,7,8,9,10-hexahydro-6,10-epimino[1,2,4]triazolo[4,3-a]azocine]
remaining activity at 10 µM (P2X7, Table 1, 10 μM compound): -1.2% | remaining activity at 10 µM [1]: -1.2%

Cc1ccc(-c2nnc3n2C[C@H]2CCC[C@@H]3N2C(=O)c2ccnc(C(F)(F)F)c2Cl)s1 (stereo in doubt) [Example 39, (6R*,10S*)-11-{[3-Chloro-2-(trifluoromethyl)pyridin-4-yl]carbonyl}-3-(5-methylthiophen-2-yl)-5,6,7,8,9,10-hexahydro-6,10-epimino[1,2,4]triazolo[4,3-a]azocine]
remaining activity at 10 µM (P2X7, Table 1, 10 μM compound): 5.8% | remaining activity at 10 µM [1]: 5.8%

Cc1nc(-c2nnc3n2C[C@H]2CCC[C@@H]3N2C(=O)c2cccc(C(F)(F)F)c2Cl)ccc1F (stereo in doubt) [Example 193, (6R,10S)-11-{[2-Chloro-3-(trifluoromethyl)phenyl]carbonyl}-3-(5-fluoro-6-methylpyridin-2-yl)-5,6,7,8,9,10-hexahydro-6,10-epimino[1,2,4]triazolo[4,3-a]azocine]
remaining activity at 10 µM [1]: -13.8%

Cc1ccnc(-c2nnc3n2C[C@H]2CCC[C@@H]3N2C(=O)c2cccc(C(F)(F)F)c2Cl)c1 (stereo in doubt) [Example 194, (6R,10S)-11-{[2-Chloro-3-(trifluoromethyl)phenyl]carbonyl}-3-(4-methylpyridin-2-yl)-5,6,7,8,9,10-hexahydro-6,10-epimino[1,2,4]triazolo[4,3-a]azocine]
remaining activity at 10 µM [1]: -13%

O=C(c1cccc(C(F)(F)F)c1Cl)N1[C@@H]2CCC[C@H]1c1nnc(-c3cccnn3)n1C2 (stereo in doubt) [Example 195, (6R,10S)-11-{[2-Chloro-3-(trifluoromethyl)phenyl]carbonyl}-3-pyridazin-3-yl-5,6,7,8,9,10-hexahydro-6,10-epimino[1,2,4]triazolo[4,3-a]azocine]
remaining activity at 10 µM [1]: 11.2%

O=C(c1cccc(C(F)(F)F)c1Cl)N1[C@@H]2CCC[C@H]1c1nnc(-c3cc(C(F)(F)F)ccn3)n1C2 (stereo in doubt) [Example 196, (6R,10S)-11-{[2-Chloro-3-(trifluoromethyl)phenyl]carbonyl}-3-[4-(trifluoromethyl)pyridin-2-yl]-5,6,7,8,9,10-hexahydro-6,10-epimino[1,2,4]triazolo[4,3-a]azocine]
remaining activity at 10 µM [1]: -0.2%

O=C(c1cccc(C(F)(F)F)c1Cl)N1[C@@H]2CCC[C@H]1c1nnc(-c3ccncn3)n1C2 (stereo in doubt) [Example 197, (6R,10S)-11-{[2-Chloro-3-(trifluoromethyl)phenyl]carbonyl}-3-pyrimidin-4-yl-5,6,7,8,9,10-hexahydro-6,10-epimino[1,2,4]triazolo[4,3-a]azocine]
remaining activity at 10 µM [1]: 1.8%

O=C(c1ccnc(C(F)(F)F)c1F)N1[C@@H]2CCC[C@H]1c1nnc(-c3ccccn3)n1C2 (stereo in doubt) [Example 198, (6R,10S)-11-{[3-Fluoro-2-(trifluoromethyl)pyridin-4-yl]carbonyl}-3-pyridin-2-yl-5,6,7,8,9,10-hexahydro-6,10-epimino[1,2,4]triazolo[4,3-a]azocine]
remaining activity at 10 µM [1]: 4.1%

O=C(c1ccnc(C(F)(F)F)c1Cl)N1[C@@H]2CCC[C@H]1c1nnc(-c3ccccn3)n1C2 (stereo in doubt) [Example 199, (6R,10S)-11-{[3-Chloro-2-(trifluoromethyl)pyridin-4-yl]carbonyl}-3-pyridin-2-yl-5,6,7,8,9,10-hexahydro-6,10-epimino[1,2,4]triazolo[4,3-a]azocine]
remaining activity at 10 µM [1]: -3.2%

O=C(c1ccc(F)c(C(F)(F)F)c1Cl)N1[C@@H]2CCC[C@H]1c1nnc(-c3ccccn3)n1C2 (stereo in doubt) [Example 200, (6R,10S)-11-{[2-Chloro-4-fluoro-3-(trifluoromethyl)phenyl]carbonyl}-3-pyridin-2-yl-5,6,7,8,9,10-hexahydro-6,10-epimino[1,2,4]triazolo[4,3-a]azocine]
remaining activity at 10 µM [1]: 7.7%

Cc1c(C(=O)N2[C@@H]3CCC[C@H]2c2nnc(-c4ccccn4)n2C3)cccc1C(F)(F)F (stereo in doubt) [Example 201, (6R,10S)-11-{[2-Methyl-3-(trifluoromethyl)phenyl]carbonyl}-3-pyridin-2-yl-5,6,7,8,9,10-hexahydro-6,10-epimino[1,2,4]triazolo[4,3-a]azocine]
remaining activity at 10 µM [1]: -4%

O=C(c1ccc(Cl)c(F)c1Cl)N1[C@@H]2CCC[C@H]1c1nnc(-c3ccccn3)n1C2 (stereo in doubt) [Example 202, (6R,10S)-11-[(2,4-Dichloro-3-fluorophenyl)carbonyl]-3-pyridin-2-yl-5,6,7,8,9,10-hexahydro-6,10-epimino[1,2,4]triazolo[4,3-a]azocine]
remaining activity at 10 µM [1]: -2.3%

O=C(c1ccc(F)c(Cl)c1Cl)N1[C@@H]2CCC[C@H]1c1nnc(-c3ccccn3)n1C2 (stereo in doubt) [Example 203, (6R,10S)-11-[(2,3-Dichloro-4-fluorophenyl)carbonyl]-3-pyridin-2-yl-5,6,7,8,9,10-hexahydro-6,10-epimino[1,2,4]triazolo[4,3-a]azocine]
remaining activity at 10 µM [1]: -5%

O=C(c1cccc(C(F)(F)F)c1Cl)N1[C@H]2CC[C@@H]1c1nnc(-c3ccccn3)n1C2 [Example 41, (6S,9R)-10-{[2-Chloro-3-(trifluoromethyl)phenyl]carbonyl}-3-pyridin-2-yl-6,7,8,9-tetrahydro-5H-6,9-epimino[1,2,4]triazolo[4,3-a]azepine]
remaining activity at 10 µM [1]: -20% | PBMC 10 μM (% control): −20.0 % control

O=C(c1cccc(C(F)(F)F)c1Cl)N1[C@H]2CC[C@@H]1c1nnc(-c3ncccn3)n1C2 [Example 46, (6S,9R)-10-{[2-Chloro-3-(trifluoromethyl)phenyl]carbonyl}-3-pyrimidin-2-yl-6,7,8,9-tetrahydro-5H-6,9-epimino[1,2,4]triazolo[4,3-a]azepine]
remaining activity at 10 µM [1]: 10% | PBMC 10 μM (% control): 10.0 % control
